Laboratory results reported in PubChem BioAssay (NCI).
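Cultured in 96-well plates, cells were exposed to test compound for 48 hours across five concentrations. TGI: total growth inhibition.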 Active and inactive are the calls of the source. No stated cut-off is given here; in the data, active means GI50 below about 0.43 µM; inactive means the rest.

Tests used:
Assay in all cases: inhibition of tumour cell growth, NCI panel, 48 h
NCI-H23 lung = system: NCI-H23 lung
UACC-62 melanoma = system: UACC-62 melanoma
IGROV1 ovarian = system: IGROV1 ovarian
SNB-19 CNS = system: SNB-19 CNS
A549 NSCLC = system: A549 NSCLC
COLO 205 colon = system: COLO 205 colon
T-47D breast = system: T-47D breast
HCC-2998 colon = system: HCC-2998 colon
DU-145 prostate = system: DU-145 prostate

Structure (SMILES): COc1ccc(C2c3cc4c(cc3OC(N3CCOCC3)C2C)OCO4)c(OC)c1OC (stereo not given)
- TGI (NCI-H23 lung): > 100 µM
- TGI (UACC-62 melanoma): 69.7 µM
- TGI (IGROV1 ovarian): 70.7 µM
- TGI (SNB-19 CNS): 39.1 µM
- TGI (A549 NSCLC): > 100 µM
- TGI (COLO 205 colon): 33.6 µM
- TGI (T-47D breast): > 100 µM
- TGI (HCC-2998 colon): 25 µM

Structure (SMILES): COc1ccc(N(C(=O)Nc2ccc(Cl)c(Cl)c2)C2c3cccn3C(=O)N2c2ccc(Cl)c(Cl)c2)cc1 (stereo not given)
- TGI (NCI-H23 lung): > 100 µM
- TGI (UACC-62 melanoma): > 100 µM
- TGI (IGROV1 ovarian): > 100 µM
- TGI (DU-145 prostate): > 100 µM
- TGI (SNB-19 CNS): > 100 µM
- TGI (A549 NSCLC): > 100 µM
- TGI (COLO 205 colon): > 100 µM
- TGI (HCC-2998 colon): > 100 µM

Structure (SMILES): COc1ccc(COCC[C@H](C)OC2OC(CO[Si](C)(C)C(C)(C)C)C(OC(=O)CCCN=[N+]=[N-])C(OC(=O)CCCN=[N+]=[N-])C2OC(=O)CCCN=[N+]=[N-])cc1 (stereo not given in full)
- TGI (NCI-H23 lung): > 100 µM
- TGI (UACC-62 melanoma): > 100 µM
- TGI (IGROV1 ovarian): > 100 µM
- TGI (DU-145 prostate): > 100 µM
- TGI (A549 NSCLC): > 100 µM
- TGI (COLO 205 colon): 83.1 µM
- TGI (T-47D breast): > 100 µM
- TGI (HCC-2998 colon): > 100 µM

Structure (SMILES): COc1ccc(NC(=S)NC(=O)c2ccc3c(c2)Sc2ccccc2O3)c([N+](=O)[O-])c1
- TGI (NCI-H23 lung): > 100 µM
- TGI (UACC-62 melanoma): > 100 µM
- TGI (IGROV1 ovarian): 59.1 µM
- TGI (DU-145 prostate): > 100 µM
- TGI (SNB-19 CNS): 83.6 µM
- TGI (A549 NSCLC): > 100 µM
- TGI (COLO 205 colon): > 100 µM
- TGI (T-47D breast): > 100 µM

Structure (SMILES): CC12CCCC3(CC(=O)C(C)(C)C3C(=O)C1)C2 (stereo not given)
- TGI (NCI-H23 lung): > 100 µM
- TGI (UACC-62 melanoma): > 100 µM
- TGI (IGROV1 ovarian): > 100 µM
- TGI (DU-145 prostate): > 100 µM
- TGI (SNB-19 CNS): > 100 µM
- TGI (A549 NSCLC): > 100 µM
- TGI (COLO 205 colon): > 100 µM
- TGI (T-47D breast): > 100 µM

Structure (SMILES): O=c1[nH]c(=O)n(C2CC(O)C(CO)O2)cc1OCc1ccccc1 (stereo not given)
- TGI (NCI-H23 lung): > 100 µM
- TGI (UACC-62 melanoma): > 100 µM
- TGI (IGROV1 ovarian): > 100 µM
- TGI (DU-145 prostate): > 100 µM
- TGI (SNB-19 CNS): > 100 µM
- TGI (A549 NSCLC): > 100 µM
- TGI (COLO 205 colon): > 100 µM
- TGI (T-47D breast): > 100 µM

Structure (SMILES): CN(C)CCC(=O)/C=C\c1ccccc1
- TGI (UACC-62 melanoma): 31.3 µM
- TGI (IGROV1 ovarian): 62 µM
- TGI (SNB-19 CNS): > 100 µM
- TGI (A549 NSCLC): 48.3 µM
- TGI (COLO 205 colon): 29.3 µM

Structure (SMILES): c1c2c(cc(-n3nnc4c3CCCCCC4)c1-n1nnc3c1CCCCCC3)CCCCCC2
- TGI (UACC-62 melanoma): 26.7 µM
- TGI (IGROV1 ovarian): 41.2 µM
- TGI (SNB-19 CNS): 28.4 µM
- outcome (A549 NSCLC): inactive
- TGI (HCC-2998 colon): 29.5 µM

Structure (SMILES): CCOC(=O)C#Cc1ccccc1
- TGI (NCI-H23 lung): 34.7 µM
- TGI (UACC-62 melanoma): 32.5 µM
- TGI (DU-145 prostate): > 100 µM
- TGI (SNB-19 CNS): > 100 µM
- TGI (A549 NSCLC): 58.3 µM
- TGI (COLO 205 colon): 25.9 µM
- TGI (T-47D breast): > 100 µM
- TGI (HCC-2998 colon): 27.8 µM

Structure (SMILES): S=c1cc(-c2ccc3c(c2)OCO3)s[nH]1
- TGI (NCI-H23 lung): > 100 µM
- TGI (UACC-62 melanoma): > 100 µM
- TGI (IGROV1 ovarian): > 100 µM
- TGI (DU-145 prostate): > 100 µM
- TGI (SNB-19 CNS): > 100 µM
- TGI (A549 NSCLC): > 100 µM
- TGI (COLO 205 colon): > 100 µM
- TGI (T-47D breast): > 100 µM

Structure (SMILES): COc1cc2c(c(O)c1OC)C(=O)C(Cc1ccc(O)cc1)CO2 (stereo not given)
- TGI (NCI-H23 lung): > 100 µM
- TGI (UACC-62 melanoma): > 100 µM
- TGI (IGROV1 ovarian): > 100 µM
- TGI (DU-145 prostate): > 100 µM
- TGI (SNB-19 CNS): 74.1 µM
- TGI (A549 NSCLC): 60.7 µM
- TGI (COLO 205 colon): > 100 µM
- TGI (T-47D breast): 69.6 µM

Structure (SMILES): Cc1ccc(C2=CC(=O)/C(=C\C(=O)c3ccc(Cl)cc3)O2)cc1
- TGI (NCI-H23 lung): 55.3 µM
- TGI (UACC-62 melanoma): 23.8 µM
- TGI (IGROV1 ovarian): 34.2 µM
- TGI (DU-145 prostate): 87.1 µM
- TGI (SNB-19 CNS): > 100 µM
- TGI (COLO 205 colon): 26.1 µM
- TGI (T-47D breast): 24.3 µM
- TGI (HCC-2998 colon): 51.1 µM

Structure (SMILES): O=c1cc(N2CCCC2)[nH]c(=O)n1-c1ccccc1
- TGI (NCI-H23 lung): > 100 µM
- TGI (IGROV1 ovarian): > 100 µM
- TGI (DU-145 prostate): > 100 µM
- TGI (SNB-19 CNS): > 100 µM
- TGI (A549 NSCLC): > 100 µM
- TGI (COLO 205 colon): > 100 µM
- TGI (HCC-2998 colon): > 100 µM

Structure (SMILES): C=C1c2nc3ccccc3n2C=C(c2ccc(Cl)cc2)N1c1ccc(OC)cc1
- TGI (NCI-H23 lung): 22.9 µM
- TGI (UACC-62 melanoma): > 100 µM
- TGI (IGROV1 ovarian): 26.1 µM
- TGI (DU-145 prostate): 61.8 µM
- TGI (SNB-19 CNS): 12.7 µM
- TGI (A549 NSCLC): 30.4 µM
- TGI (COLO 205 colon): > 100 µM
- TGI (HCC-2998 colon): 28.3 µM
